Measurements reported in ChEMBL document CHEMBL1146040, “Lactones from a brown alga endophytic fungus (No. ZZF36) from the South China Sea and their antimicrobial activities” (2006).
In brackets after ≈: the same amount, converted by molar mass.

Legend:
[1] = tested on: Candida albicans; test: Antifungal activity against Candida albicans ATCC 10231; type: functional
[2] = tested on: Escherichia coli; test: Antibacterial activity against Escherichia coli ATCC 25922; type: functional
[3] = tested on: Staphylococcus aureus; test: Antibacterial activity against Staphylococcus aureus ATCC 27154; type: functional
[4] = tested on: Salmonella enteritidis; test: Antibacterial activity against Salmonella enteritidis ATCC 13076; type: functional, Salmonella enterica subsp. enterica serovar Enteritidis; details: Salmonella enterica
[5] = tested on: Bacillus subtilis; test: Antibacterial activity against Bacillus subtilis ATCC 6633; type: functional
[6] = tested on: Fusarium oxysporum; test: Antifungal activity against Fusarium oxysporum f.sp.cubense; type: functional

| Molecule | MIC [1] | MIC [2] | MIC [3] | MIC [4] | MIC [5] | MIC [6] |
| --- | --- | --- | --- | --- | --- | --- |
| COc1cc(O)cc2c1C(=O)O[C@@H](C)CCCCCCC2 [LASIODIPLODIN] | > 100 µg/mL | > 100 µg/mL | 25 µg/mL (≈ 85.5 µM) | > 100 µg/mL | 50 µg/mL (≈ 171 µM) | 100 µg/mL (≈ 342 µM) |
| CC1CCC(=O)CCCCc2cc(O)cc(O)c2C(=O)O1 (configuration not stated) | > 100 µg/mL | > 100 µg/mL | > 100 µg/mL | > 100 µg/mL | > 100 µg/mL | > 100 µg/mL |
| COc1cc(OC(C)=O)cc2c1C(=O)OC(C)CCCCCCC2 (configuration not stated) | > 100 µg/mL | > 100 µg/mL | > 100 µg/mL | > 100 µg/mL | > 100 µg/mL | > 100 µg/mL |
| NYSTATIN | 1.56 µg/mL |  |  |  |  | 3.12 µg/mL |
| CC1CC(O)CCCCCc2cc(O)cc(O)c2C(=O)O1 (configuration not stated) | > 100 µg/mL | > 100 µg/mL | 100 µg/mL (≈ 340 µM) | > 100 µg/mL | > 100 µg/mL | > 100 µg/mL |
| CC1(C)S[C@@H]2[C@H](NC(=O)[C@H](N)c3ccccc3)C(=O)N2[C@H]1C(=O)O [AMPICILLIN] |  | 6.25 µg/mL (≈ 17.9 µM) | > 100 µg/mL | 50 µg/mL (≈ 143 µM) | 100 µg/mL (≈ 286 µM) |  |
| CC1CCCCCCCc2cc(O)cc(O)c2C(=O)O1 (configuration not stated) | 100 µg/mL (≈ 359 µM) | > 100 µg/mL | 6.25 µg/mL (≈ 22.5 µM) | 12.5 µg/mL (≈ 44.9 µM) | 12.5 µg/mL (≈ 44.9 µM) | 50 µg/mL (≈ 180 µM) |
| COc1c(Br)c(O)c(Br)c2c1C(=O)OC(C)CCCCCCC2 (configuration not stated) | > 100 µg/mL | > 100 µg/mL | > 100 µg/mL | > 100 µg/mL | 6.25 µg/mL (≈ 13.9 µM) | 12.5 µg/mL (≈ 27.8 µM) |
